The record followed here is ChEMBL document CHEMBL1129816, “Synthesis of 4-trifluoromethylsteroids: A novel class of steroid 5-reductase inhibitors” (Bioorg Med Chem Lett, 1997).

Bounds are passed on as bounds.

The term Ki denotes the equilibrium dissociation constant of an inhibitor or competing ligand from its target. Lower therefore signals tighter binding.

Experiment [1] can be described thus: In vitro inhibitory activity against Steroid 5-alpha-reductase by using isotope method.
Experiment [2] can be described thus: In vitro inhibitory activity against Steroid 5-alpha-reductase by using enzymic kinetics method.

With `C[C@]12CCC(=O)C(C(F)(F)F)=C1CCC1C2CC[C@]2(C)C(=O)CCC12` (stereo partly drawn), the Ki in experiment [1] amounted to 95.2 nM; in experiment [2], 28.8 nM.
The matching figures for `CC(C)(C)NC(=O)[C@H]1CCC2C3CCC4=C(C(F)(F)F)C(=O)CC[C@]4(C)C3CC[C@@]21C` (stereo partly drawn): 20.9 nM and 20.2 nM.
The matching figures for `CC(=O)[C@H]1CCC2C3CCC4=C(C(F)(F)F)C(=O)CC[C@]4(C)C3CC[C@@]21C` (stereo partly drawn): more than 1000 nM and more than 1000 nM.
For `CC(C)(C)NC(=O)[C@H]1CC[C@H]2[C@@H]3CC[C@H]4NC(=O)C=C[C@]4(C)[C@H]3CC[C@]12C` [FINASTERIDE], the inhibitory constant (Ki) in experiment [1] stood at 88.2 nM; in experiment [2], 54.7 nM.
